Data taken from paper PMC10734298 (ACS Omega, 2023).
Read-outs that look alike come from different tables or passages of the source.

Key:
[1] = tested on: A/Tern/South Africa/1/61 (H5N3); design: species or system influenza A virus
[2] = tested on: A/chicken/FPV/Rostock/1934 (H7N1); design: species or system influenza A virus
[3] = target: NA of A/Tern/South Africa/1/61 (H5N3) (Influenza A virus, UniProt Q6XV52); experiment: biochemical
[4] = tested on: A/Tern/South Africa/1/61(H5N3); experiment: microbe, parasite or virus in culture; type: cell-based, influenza A virus; conditions: for EC50: Influenza A virus, H5N3, MDCK
A/Almaty/8/98(H3N2) [5] = experiment: animal or person; type: in vivo, influenza A virus; conditions: for EC50: Influenza A virus, H3N2
[6] = tested on: A/Tern/South Africa/1/61(H5N3); experiment: animal or person; type: in vivo, influenza A virus; conditions: for EC50: Influenza A virus, H5N3
[7] = tested on: A/Tern/South Africa/1/61 (H5N3); type: biochemical, influenza A virus; conditions: read-out: Hemagglutination Inhibition Concentration 50 (HIC50)
[8] = tested on: influenza virus (all tested viruses); experiment: microbe, parasite or virus in culture; type: cell-based, influenza A virus; conditions: unidentified influenza virus, MDCK, read-out: EC50 value
[9] = tested on: A/Vladivostok/2/09 (H1N1); type: biochemical, influenza A virus; conditions: read-out: Hemagglutination Inhibition Concentration 50 (HIC50)
[10] = tested on: A/Vladivostok/2/09 (H1N1); experiment: microbe, parasite or virus in culture; type: cell-based, influenza A virus; conditions: for EC50: Influenza A virus, H1N1, MDCK
[11] = tested on: A/chicken/FPV/Rostock/1934 (H7N1); type: biochemical, influenza A virus; conditions: read-out: Hemagglutination Inhibition Concentration 50 (HIC50)
A/Almaty/8/98(H3N2) [12] = experiment: microbe, parasite or virus in culture; type: cell-based, influenza A virus; conditions: for EC50: Influenza A virus, H3N2, MDCK
[13] = tested on: NA protein of panel of viruses; experiment: NA inhibition assay, whole virus panel; type: biochemical, influenza A virus; conditions: read-out: concentrations inhibiting the NA activity; range over panel viruses
[14] = Toxicity in fertilized chicken eggs; conditions: in vivo, other: inoculated into the allantoic cavity
[15] = tested on: A/Vladivostok/2/09 (H1N1); design: species or system influenza A virus
A/Almaty/8/98(H3N2) [16] = tested on: A/Almaty/8/98(H3N2); design: species or system influenza A virus
Toxicity in MDCK cells = conditions: dog
[17] = target: NA of A/chicken/FPV/Rostock/1934 (H7N1) (Influenza A virus, UniProt Q64968); type: biochemical; conditions: read-out: Neuraminidase Inhibition Concentration 50 (NIC50)
Sequence of NA of A/chicken/FPV/Rostock/1934 (H7N1) (Q64968 whole entry, looked up): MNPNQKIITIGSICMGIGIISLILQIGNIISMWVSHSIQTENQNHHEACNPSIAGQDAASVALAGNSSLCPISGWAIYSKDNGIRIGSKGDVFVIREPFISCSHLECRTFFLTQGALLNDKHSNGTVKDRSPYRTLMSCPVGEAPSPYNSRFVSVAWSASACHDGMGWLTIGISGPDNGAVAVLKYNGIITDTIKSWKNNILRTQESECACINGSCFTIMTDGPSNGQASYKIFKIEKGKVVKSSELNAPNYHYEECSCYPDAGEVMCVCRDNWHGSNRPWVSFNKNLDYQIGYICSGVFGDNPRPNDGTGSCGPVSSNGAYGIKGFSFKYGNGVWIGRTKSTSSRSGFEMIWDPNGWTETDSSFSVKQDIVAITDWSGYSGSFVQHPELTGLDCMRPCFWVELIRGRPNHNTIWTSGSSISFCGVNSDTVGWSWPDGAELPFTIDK

A/Almaty/8/98(H3N2) [18] = type: biochemical, influenza A virus; conditions: read-out: Hemagglutination Inhibition Concentration 50 (HIC50)
[19] = tested on: A/chicken/FPV/Rostock/1934(H7N1); design: species or system influenza A virus; conditions: in vivo
[20] = tested on: A/Vladivostok/2/09 (H1N1); experiment: animal or person; type: in vivo; conditions: Influenza A virus
[21] = tested on: A/chicken/FPV/Rostock/1934(H7N1); type: cell-based, influenza A virus

Sequence of NA of A/Tern/South Africa/1/61 (H5N3) (Q6XV52 whole entry, looked up): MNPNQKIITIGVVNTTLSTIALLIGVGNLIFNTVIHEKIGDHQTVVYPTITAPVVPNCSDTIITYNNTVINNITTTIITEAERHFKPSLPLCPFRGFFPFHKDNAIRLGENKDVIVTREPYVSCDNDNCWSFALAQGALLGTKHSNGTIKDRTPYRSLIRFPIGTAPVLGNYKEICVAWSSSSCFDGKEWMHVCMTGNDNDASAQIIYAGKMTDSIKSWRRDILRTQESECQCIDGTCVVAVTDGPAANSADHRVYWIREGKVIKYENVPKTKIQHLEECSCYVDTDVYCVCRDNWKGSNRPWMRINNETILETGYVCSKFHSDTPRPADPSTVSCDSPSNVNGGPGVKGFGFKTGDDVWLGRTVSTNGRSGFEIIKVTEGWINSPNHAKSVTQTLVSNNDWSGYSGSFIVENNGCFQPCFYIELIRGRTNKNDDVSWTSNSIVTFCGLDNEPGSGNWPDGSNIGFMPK

| Structure (SMILES) | Virus Titer Reduction Factor (VTRF) [1] | Virus Titer Reduction Factor (VTRF) [2] | IC50 [3] [µM] | EC50 [4] [µM] | EC50 (A/Almaty/8/98(H3N2) [5]) [µM] | EC50 [6] [µM] | IC50 [7] [µM] | EC50 [8] [µM] | IC50 [9] [µM] | EC50 [10] [µM] | IC50 [11] [µM] | EC50 (A/Almaty/8/98(H3N2) [12]) [µM] | CC50 at 5 days [14] [µM] | Virus Titer Reduction Factor (VTRF) [15] | Virus Titer Reduction Factor (VTRF) (A/Almaty/8/98(H3N2) [16]) | CC50 at 48 h (Toxicity in MDCK cells) [µM] | IC50 [17] [µM] | IC50 (A/Almaty/8/98(H3N2) [18]) [µM] | other results |
| --- | --- | --- | --- | --- | --- | --- | --- | --- | --- | --- | --- | --- | --- | --- | --- | --- | --- | --- | --- |
| CCOC(=O)C1=C[C@@H](OC(CC)CC)[C@H](NC(C)=O)[C@@H](N)C1 [oseltamivir] | 1.0 ± 0.01 | 1.0 ± 0.02 | 20.3 ± 0.5 | 1.65 ± 0.027 | 1.33 ± 0.028 | 1.65 ± 0.027 | 155 ± 2 | 1.3 to 9.1 | 155 ± 5.1 | 9.091 ± 0.04 | 135 ± 6.6 | 1.33 ± 0.028 | > 150 | 1.0 ± 0.02 | 1.0 ± 0.02 | > 100 | 6.1 ± 0.2 | 145 ± 6.6 | IC50 [13]: 4 to 20.3 µM |
| COc1cc(-c2oc3cc(O)cc(O)c3c(=O)c2O)ccc1O [isorhamnetin] | 1.9 ± 0.02 | 1.5 ± 0.02 | 370 ± 7.5 | 35.4 ± 0.18 | 28 ± 0.34 | 35.4 ± 0.18 | 39.3 ± 0.7 | 28 to 56 | 156 ± 2 | 56 ± 0.45 | 48.2 ± 1.7 | 28 ± 0.34 | > 420 | 1.5 ± 0.02 | 1.5 ± 0.02 | > 280 | 68.2 ± 1.2 | 50.5 ± 0.45 | SI [19]: >12.1; SI [4]: >7.9; SI (A/Almaty/8/98(H3N2) [5]; in vivo): >15; SI ([6]; in vivo): >12.0; SI [10]: >5.0; SI (A/Almaty/8/98(H3N2) [12]): >10.0; EC50 [20]: 56 ± 0.45 µM; SI [21]: >8.1 |
